In patent US9060997B2, “Antifolate compounds for the treatment of melanoma” (UNIVERSIDAD DE MURCIA, priority 2007, dated 2015):

Key:
Assay type in all cases: cell-based, human
SkMel-28 cells [1] = assay: Microscopy of melanosome melanin content; settings: treated SkMel-28 versus untreated
Description: Confluent monolayers of SkMel-28 were harvested with a mixture of 0.05% trypsin, 0.53 mmol/L EDTA and washed once in 0.25 mol/L sucrose by centrifugation at 700×g for 5 min at 4° C. They were then homogenized on ice using 20 strokes of an ice-cold Dounce homogenizer and centrifuged at 700×g for 10 min at 4° C. The resultant postnuclear supernatant was centrifuged at 17,000×g for 15 min at 4° C. to yield a melanosome-enriched granular fraction (17). This fraction was resuspended in 0.5-2 ml of ice-cold 0.25 mol/L sucrose, 10 mmol/L HEPES, pH 7.0 and fixed for 1 h at room temperature in 2% glutaraldehyde, 2% paraformaldehyde in 0.1 mol/L sodium cacodylate buffer, pH 7.3. The fixative was then removed and the samples stored in PBS containing 4% sucrose at 4° C. Samples were subsequently dehydrated with graded alcohols and embedded in epoxy resin. This section were stained with uranyl acetate and lead citrate and examined with a Zeiss EM10 electron microscope.

Caspase-3 = Caspase-3 colorimetric activity assay; settings: SkMel-28, 50 μM, 7 days
Description: Cells were treated for 7 days with 50 μM TMECG. Caspase-3 activity was determined in the absence or the presence of […]. The results are expressed as the mean±SD of three cultures.
Caspase-3 activity in the SkMel-28 cells was measured using the caspase-3 colorimetric activity assay kit (Sigma). Briefly, the cells were washed with cold PBS and lysed with cell lysis buffer included in the kit. The cell lysates were centrifuged (10,000 g for 5 min at 4° C.), and the supernatants were collected. Equal amounts of protein (100 μg), 30 μg of colorimetric caspase-3 substrate (acetyl-Asp-Glu-Val-Asp p-Nitroanilide; Ac-[…]-pNA) and assay buffer were added to each reaction mix, which were then incubated for 4 h at 37° C. Caspase-3 activity was determined by measuring the absorbance at 405 nm. One unit of caspase-3 activity was expressed as 1 pmol of pNA formed per hour, and its specific activity was that unit divided by micrograms of protein. Caspase-3 inhibitor ([…]) was used as negative control.

FRα mRNA = assay: FRα expression in SkMel-28 (real-time PCR, RT-PCR); settings: SkMel-28, 50 μM
Description: PolyA+ mRNA from human adult skin was purchased from Invitrogen. SkMel-28 and HEM polyA+ mRNA was extracted from 5×10^6 cells using the Illustra Quick Prep Micro mRNA purification kit (GE Healthcare). mRNA (200 ng) was used to synthesize cDNA using SuperScript First-Strand Synthesis System (Invitrogen). PCR amplification of 2 μL of the cDNA strand generated was carried out in a total volume of 50 μL using an Eppendorf Mastercycler Thermal Cycler. Samples were amplified by 40 cycles at 95° C. (1 min), 62° C. (1 min) and 72° C. (1 min). The amplified PCR products were subjected to electrophoresis in 3% agarose gel and stained with ethidium bromide.
Primers were designer using Primer Express version 2.0 software (Applied Biosystems, Foster City, Calif.) and synthesized by Invitrogen. […] Amplification of target gene sequences were compared against serial dilutions of know quantities of their purified cDNA fragments, and normalized to the abundance of the house-keeping gene β-actin.

SkMel-28 cells [2] = assay: MTT cell proliferation assay, SkMel-28
Description: Four human cancer cells lines (SkMel-28, MCF7, H1264 and Caco-2) were obtained from the American Type Tissue Culture Collection (ATCC) and were maintained in appropriate culture mediums supplemented with 10% fetal calf serum (FCS) and antibiotics, under standard tissue culture conditions (e.g. modified Eagle's medium (MEM) containing 1 mM sodium pyruvate and 10% fetal bovine serum (FES) under 5% CO2/95% air atmosphere.). Cell injury was evaluated by a colorimetric assay for mitochondrial function using the 3-(4,5-dimethylthiazolyl-2)-2,5-diphenyltetrazolium bromide (MTT) cell proliferation assay. For this assay cells were plated in a 96-well plate at a density of 1000 cells/well and grown until they reached 50-60% confluence. Human epidermal melanocytes (HeM) were supplied by Gentaur and were cultured in HAM-F10 medium supplemented with 10% FCS, antibiotics and the human melanocyte growth supplement (Gentaur).
Cell injury was evaluated by a colorimetric assay for mitochondrial function using the 3-(4,5-dimethylthiazolyl-2)-2,5-diphenyltetrazolium bromide (MTT) cell proliferation assay. For this assay cells were plated in a 96-well plate at a density of 1000 cells/well and grown until they reached 30% confluence. Co-treatments of SkMel-28 cells with TMECG and other reagents were carried out by supplementing medium cultures with S-adenosylmethionine (SAM), adenosine or dipyridamole (all from Sigma).

COc1cc(C(=O)O[C@@H]2Cc3c(O)cc(O)cc3O[C@@H]2c2ccc(O)c(O)c2)cc(OC)c1OC [TMECG, 3-O-(3,4,5-trimethoxybenzoyl)-(−)-epicatechin]
melanosome melanin content (SkMel-28 cells [1]): much less melanin content | caspase-3 activity (Caspase-3): significantly higher caspase-3 activity | mature FRα mRNA (RT-PCR) (FRα mRNA; 3 days): partially restored the levels of mature FRα mRNA | FRα expression (exon 5 region, real-time PCR) (FRα mRNA; 5 days of treatment): no apparent effect on its expression | effect of leucovorin co-treatment on growth inhibition (SkMel-28 cells [2]; 100 μM leucovorin, MTX 1 μM or TMECG 50 μM, 3 days): did not | inhibition at 50 µM (SkMel-28 cells [2]; Homo sapiens, SK-MEL-28, 120 h, 50 μM, five days of treatment, read-out: growth of SkMel-28 inhibited): > 60% | IC50 (SkMel-28 cells [2]; Homo sapiens, SK-MEL-28, 144 h, SkMel-28, 6 days of treatment, read-out: IC50 (at 6 days)): 2900 nM | effect of natural and synthetic catechins on SkMel-28 growth (SkMel-28 cells [2]; SkMel-28): highly inhibited | DNA fragmentation (apoptosis) (SkMel-28 cells [2]; SkMel-28, 50 μM, 7 days): visible after treatment | effect of sulfasalazine (RFC inhibitor) on antiproliferative action (SkMel-28 cells [2]; sulfasalazine 0.5 mM, MTX 0.2 μM or TMECG 10 μM, 3 days): enhancing TMECG antiproliferative activity
